Source: US11690822B2, “Method for treating non-compaction cardiomyopathy” (EXCELSIOR PHARMATECH LABS, priority 2018, dated 2023)

How the values were obtained:
[1] = system: LVNC cardiomyocytes; assay: Seahorse assay of mitochondrial function (OCR, ECAR) in LVNC-hiPSC-derived cardiomyocytes; assay type: cell-based, human; details: 5 μM, iH LVNC cardiomyocytes, FIG. 2C
Excerpt: Human induced pluripotent stem cell (hiPSC) lines respectively derived from patients with left ventricular non-compaction cardiomyopathy (LVNC) and a normal healthy […] were reprogrammed through two approaches; one line of each patient was reprogrammed from skin cells by lentivirus carrying four Yamanaka factors (Klf4, Myc, Sox2, Oct4; conducted by Dr. Hong-Nerng Ho at NTU) and the other line was reprogrammed from peripheral blood monocytes (PBMC) by Sendai virus carrying the four Yamanaka factors (conducted by Dr. Joseph C. Wu at Stanford University). Patients consented to collect patients' tissues/blood cells for genetic examination, reprogramming to hiPSC, and pharmacological studies. […] Cell shortening was measured by the Ionoptix system (Westwood, Mass., USA), and mitochondrial function was assessed by an Agilent seahorse analyzer (Seahorse Bioscience, MA, USA).
Seahorse assay was performed on day 70 to measure mitochondrial OCR (Oxygen Consumption Rate) and ECAR (Extracellular Acidification Rate) under the conditions in the sequential adding of the XF mito stress test kit with the indicated reagents by the arrows. […] The relationship of OCR vs. ECAR was measured under the conditions of basal (before oligomycin) and maximum respiratory capacity (after FCCP).

[2] = system: LVNC cardiomyocytes; assay: Cell shortening (Ionoptix) and inotropic response to isoprenaline in LVNC-hiPSC-CMs; assay type: cell-based, human; details: 5 μM; isoprenaline 0.03, 0.1, 1 μM; treatment day 30 through day 70; FIG. 3B
Excerpt: Human induced pluripotent stem cell (hiPSC) lines respectively derived from patients with left ventricular non-compaction cardiomyopathy (LVNC) and a normal healthy […] were reprogrammed through two approaches; one line of each patient was reprogrammed from skin cells by lentivirus carrying four Yamanaka factors (Klf4, Myc, Sox2, Oct4; conducted by Dr. Hong-Nerng Ho at NTU) and the other line was reprogrammed from peripheral blood monocytes (PBMC) by Sendai virus carrying the four Yamanaka factors (conducted by Dr. Joseph C. Wu at Stanford University). Patients consented to collect patients' tissues/blood cells for genetic examination, reprogramming to hiPSC, and pharmacological studies. Drug effect was validated via testing the same drug at the same dose in human cardiomyocytes derived from the two lines of the same patient with at least three independent repeats in each line. Cell shortening was measured by the Ionoptix system (Westwood, Mass., USA), and mitochondrial function was assessed by an Agilent seahorse analyzer (Seahorse Bioscience, MA, USA).

[3] = system: LVNC cardiomyocytes; assay: Proteomic analysis (LC-MS/MS) of LVNC cardiomyocytes treated with or without simvastatin; assay type: cell-based, human
Protocol: The samples were further digested by trypsin. After being desalted and dried, LC-MS/MS analysis was performed by the LTQ-Orbitrap Velos mass spectrometer system. The peptide and protein group IDs were obtained by MASCOT database searching with precursor mass accuracy of 7 ppm and MS/MS accuracy of 0.5 Da. The large mass-spectrometric raw data were further analyzed by the MaxQuant software based on the Uniprot human database with a label-free quantification method and followed by the statistical analysis using the Perseus software.

[4] = system: Tnnt2^R154W/+::Mypn^S1291T/+ LVNC mice; assay: Echocardiography of cardiac function (LVEF) in LVNC mice; assay type: in vivo, mouse
Protocol: Tnnt2(R154W)- and Mypn(S1291T)-knockin mice on C57BL/6j background were generated by Gene Knockout Mouse Core Laboratory of National Taiwan University Center of Genomic Medicine. Genetically heterozygous LVNC mice (Tnnt2(R154W)^+/−:: Mypn(S1291T)^+/−) were obtained from crossing Tnnt2(R154W)^+/− and Mypn(S1291T)^+/− mice. PCR and DNA sequencing were performed to confirm the genotype. All animal procedures and protocols were approved by AAALAC-accredited facility.
The cardiac motion function of LVNC mice was measured through echocardiography in M-mode by the VisualSonic vevo 2100 imaging system (VisualSonic Inc., Toronto, Canada). Cardiac glucose metabolic rate of LVNC mice was measured by dynamic small animal positron emission tomography (PET) observation under anesthetization by 2% isoflurane inhalation. ^18F-FDG (fluorodeoxyglucose 18F) uptake in LVNC mouse heart was measured for the analysis of cardiac glucose metabolic rate (MRGlu) by dynamic small animal positron emission tomography (PET) to examine the changes in cardiometabolism.
Repeated measures two-way ANOVA with multiple comparisons by the Tukey test was used to distinguish the difference in cell shortening velocity between DMSO- and simvastatin-groups on day 50 and day 70 in LVNC-hiPSC-CMs of iFa and iH. […]

## Cc1cc(C)c(CNC(=O)c2cc(-c3ccc(N4CCN(C)CC4)nc3)cc3c2c(C)cn3C(C)C)c(=O)[nH]1 [GSK503]
[1]
  OCR and ECAR of LVNC cardiomyocytes (mitochondrial function): does not significantly improve OCR or ECAR
[1]; listed as gsk
  OCR and ECAR of LVNC cardiomyocytes (mitochondrial function): did not change cardiac mitochondrial dysfunction

## O=C(CCCCCCC(=O)Nc1ccccc1)NO [SAHA]
[2]
  cardiac contraction and positive inotropic response to isoprenaline-induced β-stimulation: unable to improve LVNC cardiac functions

## CC(C)c1c(C(=O)Nc2ccccc2)c(-c2ccccc2)c(-c2ccc(F)cc2)n1CC[C@@H](O)C[C@@H](O)CC(=O)O [atorvastatin]
[2]
  cardiac contraction and positive inotropic response to isoprenaline-induced β-stimulation: the efficacy of simvastatin is better than those of the other statins

## CC[C@H](C)C(=O)O[C@H]1C[C@@H](C)C=C2C=C[C@H](C)[C@H](CC[C@@H]3C[C@@H](O)CC(=O)O3)[C@H]21 [lovastatin]
[2]
  cardiac contraction and positive inotropic response to isoprenaline-induced β-stimulation: the efficacy of simvastatin is better than those of the other statins

## CCC(C)(C)C(=O)O[C@H]1C[C@@H](C)C=C2C=C[C@H](C)[C@H](CC[C@@H]3C[C@@H](O)CC(=O)O3)[C@H]21 [simvastatin]
[3]; iH LVNC cardiomyocytes, FIG. 4C
  number of proteins highly expressed in both healthy/iH,ctrl and iH,s/iH,ctrl: 69 proteins
[3]; two LVNC patients (iFa & iH), FIG. 4D
  number of proteins significantly upregulated in both iF,s/iF,ctrl and iH,s/iH,ctrl: 27 proteins
[4]; S(d1-84): treated initial 84 days, then 42 days drug holiday, P=0.1326, R square=0.3352, not significantly deviated from zero
  slope of linear regression of LVEF % vs. day: 0.05031
[4]; S(d1-126): continuous treatment 126 days, 3.5 mg/kg/day osmotic pump, P=0.0297, R square=0.6445, significantly deviated from zero
  slope of linear regression of LVEF % vs. day: 0.1098
